Data published in PubChem BioAssay (NCI).
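Dose response: 5 concentrations. Exposure: 48 h. Format: 96-well plates. Endpoint: linear interpolation; highest concentration if not reached. GI50: concentration for 50% inhibition of growth. Definition used: TGI = concentration required for complete inhibition of growth.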

Experiments:
Assay in all cases: DTP human tumour cell line panel, 48 h
UACC-257 melanoma = test system: UACC-257 melanoma
A498 renal = test system: A498 renal
786-0 renal = test system: 786-0 renal
SK-OV-3 ovarian = test system: SK-OV-3 ovarian
HT29 colon = test system: HT29 colon
M14 melanoma = test system: M14 melanoma
MALME-3M melanoma = test system: MALME-3M melanoma
SNB-75 CNS = test system: SNB-75 CNS
COLO 205 colon = test system: COLO 205 colon
HCC-2998 colon = test system: HCC-2998 colon
MDA-MB-231 breast = test system: MDA-MB-231 breast
OVCAR-4 ovarian = test system: OVCAR-4 ovarian
MDA-MB-435 = test system: MDA-MB-435
RPMI-8226 leukemia = test system: RPMI-8226 leukemia
EKVX NSCLC = test system: EKVX NSCLC
T-47D breast = test system: T-47D breast
HCT-15 colon = test system: HCT-15 colon
UACC-62 melanoma = test system: UACC-62 melanoma
HOP-92 NSCLC = test system: HOP-92 NSCLC
HS 578T breast = test system: HS 578T breast
TK-10 renal = test system: TK-10 renal
SW-620 colon = test system: SW-620 colon
CAKI-1 renal = test system: CAKI-1 renal
MCF7 breast = test system: MCF7 breast
BT-549 breast = test system: BT-549 breast
SN12C renal = test system: SN12C renal
U251 CNS = test system: U251 CNS
SR leukemia = test system: SR leukemia
HCT-116 colon = test system: HCT-116 colon
SF-539 CNS = test system: SF-539 CNS
RXF 393 renal = test system: RXF 393 renal
HOP-62 NSCLC = test system: HOP-62 NSCLC
CCRF-CEM leukemia = test system: CCRF-CEM leukemia
SK-MEL-5 melanoma = test system: SK-MEL-5 melanoma
NCI/ADR-RES ovarian = test system: NCI/ADR-RES ovarian
OVCAR-5 ovarian = test system: OVCAR-5 ovarian
OVCAR-3 ovarian = test system: OVCAR-3 ovarian
NCI-H460 lung = test system: NCI-H460 lung
LOX IMVI melanoma = test system: LOX IMVI melanoma
UO-31 renal = test system: UO-31 renal
NCI-H23 lung = test system: NCI-H23 lung
IGROV1 ovarian = test system: IGROV1 ovarian
PC-3 prostate = test system: PC-3 prostate
KM12 colon = test system: KM12 colon
K-562 leukemia = test system: K-562 leukemia
SK-MEL-2 melanoma = test system: SK-MEL-2 melanoma
A549 NSCLC = test system: A549 NSCLC
NCI-H226 lung = test system: NCI-H226 lung
DU-145 prostate = test system: DU-145 prostate
OVCAR-8 ovarian = test system: OVCAR-8 ovarian
HL-60(TB) leukemia = test system: HL-60(TB) leukemia
SF-295 CNS = test system: SF-295 CNS
ACHN renal = test system: ACHN renal
SK-MEL-28 melanoma = test system: SK-MEL-28 melanoma
SNB-19 CNS = test system: SNB-19 CNS
NCI-H522 lung = test system: NCI-H522 lung
SF-268 CNS = test system: SF-268 CNS
MOLT-4 leukemia = test system: MOLT-4 leukemia

## O=[N+]([O-])c1ccc2c(c1)C(=NO)c1cc([N+](=O)[O-])ccc1-2
UACC-257 melanoma
  GI50: 62.6 µM
  TGI: > 100 µM
A498 renal
  GI50: 54 µM
  TGI: > 100 µM
786-0 renal
  GI50: 10.8 µM
  TGI: > 100 µM
SK-OV-3 ovarian
  GI50: > 100 µM
  TGI: > 100 µM
HT29 colon
  GI50: 19.5 µM
  TGI: > 100 µM
M14 melanoma
  GI50: 21.5 µM
  TGI: > 100 µM
MALME-3M melanoma
  GI50: 11.7 µM
  TGI: > 100 µM
SNB-75 CNS
  GI50: 7.18 µM
  TGI: 75.8 µM
COLO 205 colon
  GI50: 39.5 µM
  TGI: > 100 µM
HCC-2998 colon
  GI50: 37.1 µM
  TGI: > 100 µM
MDA-MB-231 breast
  GI50: 36.3 µM
  TGI: > 100 µM
OVCAR-4 ovarian
  GI50: 12.7 µM
  TGI: > 100 µM
MDA-MB-435
  GI50: 22.5 µM
  TGI: > 100 µM
RPMI-8226 leukemia
  GI50: 29.4 µM
  TGI: > 100 µM
EKVX NSCLC
  GI50: 12.9 µM
  TGI: > 100 µM
T-47D breast
  GI50: 79 µM
  TGI: > 100 µM
HCT-15 colon
  GI50: 8.92 µM
  TGI: > 100 µM
UACC-62 melanoma
  GI50: 11.5 µM
  TGI: > 100 µM
HOP-92 NSCLC
  GI50: 53.7 µM
  TGI: > 100 µM
HS 578T breast
  GI50: > 100 µM
  TGI: > 100 µM
TK-10 renal
  GI50: 12.6 µM
  TGI: > 100 µM
SW-620 colon
  GI50: 12.4 µM
  TGI: > 100 µM
CAKI-1 renal
  GI50: 6.46 µM
  TGI: > 100 µM
MCF7 breast
  GI50: 4.92 µM
  TGI: > 100 µM
BT-549 breast
  GI50: 50.8 µM
  TGI: > 100 µM
SN12C renal
  GI50: 20.5 µM
  TGI: > 100 µM
U251 CNS
  GI50: 10.7 µM
  TGI: > 100 µM
SR leukemia
  GI50: 2.88 µM
  TGI: 9.86 µM
HCT-116 colon
  GI50: 6.71 µM
  TGI: > 100 µM
SF-539 CNS
  GI50: 37.7 µM
  TGI: > 100 µM
RXF 393 renal
  GI50: > 100 µM
  TGI: > 100 µM
HOP-62 NSCLC
  GI50: 46.5 µM
  TGI: > 100 µM
CCRF-CEM leukemia
  GI50: 13.6 µM
  TGI: > 100 µM
SK-MEL-5 melanoma
  GI50: 12.1 µM
  TGI: 34 µM
NCI/ADR-RES ovarian
  GI50: 16.3 µM
  TGI: > 100 µM
OVCAR-5 ovarian
  GI50: > 100 µM
  TGI: > 100 µM
OVCAR-3 ovarian
  GI50: 68.4 µM
  TGI: > 100 µM
NCI-H460 lung
  GI50: 4.82 µM
  TGI: > 100 µM
LOX IMVI melanoma
  GI50: 13.8 µM
  TGI: > 100 µM
UO-31 renal
  GI50: 3.12 µM
  TGI: 23.5 µM
NCI-H23 lung
  GI50: 25.3 µM
  TGI: > 100 µM
IGROV1 ovarian
  GI50: 2.52 µM
  TGI: 7.6 µM
PC-3 prostate
  GI50: 24.2 µM
  TGI: > 100 µM
KM12 colon
  GI50: 18.6 µM
  TGI: > 100 µM
K-562 leukemia
  GI50: 11.7 µM
  TGI: > 100 µM
SK-MEL-2 melanoma
  GI50: > 100 µM
  TGI: > 100 µM
A549 NSCLC
  GI50: 7.23 µM
  TGI: > 100 µM
NCI-H226 lung
  GI50: 10.9 µM
  TGI: 29.1 µM
DU-145 prostate
  GI50: 55.1 µM
  TGI: > 100 µM
OVCAR-8 ovarian
  GI50: 74.7 µM
  TGI: > 100 µM
HL-60(TB) leukemia
  GI50: 4.19 µM
  TGI: 22.9 µM
SF-295 CNS
  GI50: 13.5 µM
  TGI: > 100 µM
ACHN renal
  GI50: 4.98 µM
  TGI: 39.7 µM
SK-MEL-28 melanoma
  GI50: 43.4 µM
  TGI: > 100 µM
SNB-19 CNS
  GI50: > 100 µM
  TGI: > 100 µM
NCI-H522 lung
  GI50: 1.62 µM
  TGI: 11 µM
SF-268 CNS
  GI50: 33.6 µM
  TGI: > 100 µM
MOLT-4 leukemia
  GI50: 3.25 µM
  TGI: 7.61 µM

## CCOC(=O)/C=C1/SC(N2CCCCC2)C(=O)N1CC (configuration not stated)
UACC-257 melanoma
  GI50: > 100 µM
  TGI: > 100 µM
A498 renal
  GI50: > 100 µM
  TGI: > 100 µM
786-0 renal
  GI50: > 100 µM
  TGI: > 100 µM
SK-OV-3 ovarian
  GI50: > 100 µM
  TGI: > 100 µM
HT29 colon
  GI50: > 100 µM
  TGI: > 100 µM
M14 melanoma
  GI50: > 100 µM
  TGI: > 100 µM
MALME-3M melanoma
  GI50: > 100 µM
  TGI: > 100 µM
SNB-75 CNS
  GI50: > 100 µM
  TGI: > 100 µM
COLO 205 colon
  GI50: > 100 µM
  TGI: > 100 µM
HCC-2998 colon
  GI50: > 100 µM
  TGI: > 100 µM
MDA-MB-231 breast
  GI50: > 100 µM
  TGI: > 100 µM
OVCAR-4 ovarian
  GI50: > 100 µM
  TGI: > 100 µM
MDA-MB-435
  GI50: > 100 µM
  TGI: > 100 µM
RPMI-8226 leukemia
  GI50: > 100 µM
  TGI: > 100 µM
EKVX NSCLC
  GI50: > 100 µM
  TGI: > 100 µM
T-47D breast
  GI50: > 100 µM
  TGI: > 100 µM
HCT-15 colon
  GI50: > 100 µM
  TGI: > 100 µM
UACC-62 melanoma
  GI50: > 100 µM
  TGI: > 100 µM
HOP-92 NSCLC
  GI50: > 100 µM
  TGI: > 100 µM
HS 578T breast
  GI50: > 100 µM
  TGI: > 100 µM
TK-10 renal
  GI50: > 100 µM
  TGI: > 100 µM
SW-620 colon
  GI50: > 100 µM
  TGI: > 100 µM
CAKI-1 renal
  GI50: > 100 µM
  TGI: > 100 µM
MCF7 breast
  GI50: > 100 µM
  TGI: > 100 µM
BT-549 breast
  GI50: > 100 µM
  TGI: > 100 µM
SN12C renal
  GI50: > 100 µM
  TGI: > 100 µM
U251 CNS
  GI50: > 100 µM
  TGI: > 100 µM
SR leukemia
  GI50: > 100 µM
  TGI: > 100 µM
HCT-116 colon
  GI50: > 100 µM
  TGI: > 100 µM
SF-539 CNS
  GI50: > 100 µM
  TGI: > 100 µM
RXF 393 renal
  GI50: > 100 µM
  TGI: > 100 µM
HOP-62 NSCLC
  GI50: > 100 µM
  TGI: > 100 µM
CCRF-CEM leukemia
  GI50: > 100 µM
  TGI: > 100 µM
SK-MEL-5 melanoma
  GI50: > 100 µM
  TGI: > 100 µM
NCI/ADR-RES ovarian
  GI50: > 100 µM
  TGI: > 100 µM
OVCAR-5 ovarian
  GI50: > 100 µM
  TGI: > 100 µM
OVCAR-3 ovarian
  GI50: > 100 µM
  TGI: > 100 µM
NCI-H460 lung
  GI50: > 100 µM
  TGI: > 100 µM
LOX IMVI melanoma
  GI50: > 100 µM
  TGI: > 100 µM
UO-31 renal
  GI50: > 100 µM
  TGI: > 100 µM
NCI-H23 lung
  GI50: > 100 µM
  TGI: > 100 µM
IGROV1 ovarian
  GI50: > 100 µM
  TGI: > 100 µM
PC-3 prostate
  GI50: > 100 µM
  TGI: > 100 µM
KM12 colon
  GI50: > 100 µM
  TGI: > 100 µM
K-562 leukemia
  GI50: > 100 µM
  TGI: > 100 µM
SK-MEL-2 melanoma
  GI50: > 100 µM
  TGI: > 100 µM
A549 NSCLC
  GI50: > 100 µM
  TGI: > 100 µM
NCI-H226 lung
  GI50: > 100 µM
  TGI: > 100 µM
DU-145 prostate
  GI50: > 100 µM
  TGI: > 100 µM
OVCAR-8 ovarian
  GI50: > 100 µM
  TGI: > 100 µM
HL-60(TB) leukemia
  GI50: > 100 µM
  TGI: > 100 µM
SF-295 CNS
  GI50: > 100 µM
  TGI: > 100 µM
ACHN renal
  GI50: > 100 µM
  TGI: > 100 µM
SK-MEL-28 melanoma
  GI50: > 100 µM
  TGI: > 100 µM
SNB-19 CNS
  GI50: > 100 µM
  TGI: > 100 µM
NCI-H522 lung
  GI50: > 100 µM
  TGI: > 100 µM
SF-268 CNS
  GI50: > 100 µM
  TGI: > 100 µM
MOLT-4 leukemia
  GI50: > 100 µM
  TGI: > 100 µM
